Assay results: article PMC4130425, “Therapeutic drug monitoring of voriconazole: a case report of multiple drug interactions in a patient with an increased CYP2C19 activity” (AIDS Research and Therapy, 2014)
Where two headings read alike, the source gives them in different places.

What was measured:
[1] = set-up: method as in PMID 22751544; conditions: target trough range; cited from earlier work
[2] = human, in vivo
Experimental: The patient was genotyped for CYP2C19.
Time course of (A) voriconazole i. v. dosage administration, (B) comedication with esomeprazole or ranitidine and (C) associated antiretroviral therapy. Voriconazole plasma trough concentrations. qd: once a day; b.i.d.: Twice a day.
Ranitidine was replaced by esomeprazole 40 mg IV bid.

CYP2C19 = biological target: T1, CYP2C19 (Homo sapiens, UniProt P33261); test: CYP2C19 phenotyping with 2 mg omeprazole (omeprazole metabolic ratio); format: in vivo; conditions: while on CYP2C19 inhibitor esomeprazole, cut-off = 5, showed decreased CYP2C19 activity
T1 construct: endogenous in cells; host or cells: patient in vivo (endogenous enzyme)
T1 sequence (P33261 whole entry): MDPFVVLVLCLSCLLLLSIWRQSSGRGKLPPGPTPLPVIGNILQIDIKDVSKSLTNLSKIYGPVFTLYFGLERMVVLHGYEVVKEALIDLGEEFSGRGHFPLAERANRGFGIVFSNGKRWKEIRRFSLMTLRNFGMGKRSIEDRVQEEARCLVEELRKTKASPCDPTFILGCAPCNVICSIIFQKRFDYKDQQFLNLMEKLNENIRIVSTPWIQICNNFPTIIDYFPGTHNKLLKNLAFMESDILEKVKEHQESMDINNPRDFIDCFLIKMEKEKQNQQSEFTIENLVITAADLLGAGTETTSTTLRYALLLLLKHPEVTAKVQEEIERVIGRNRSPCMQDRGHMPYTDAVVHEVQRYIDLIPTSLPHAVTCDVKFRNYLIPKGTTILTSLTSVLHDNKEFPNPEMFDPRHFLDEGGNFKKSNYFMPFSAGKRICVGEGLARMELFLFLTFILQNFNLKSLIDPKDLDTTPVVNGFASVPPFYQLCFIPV

| SMILES | Voriconazole C0 therapeutic range [1] | Voriconazole first trough concentration (C0) ([2]; female) | Voriconazole C0 versus therapeutic range [2] | Voriconazole C0 versus therapeutic range ([2]; 2.5 mg/kg) | omeprazole metabolic ratio (CYP2C19) |
| --- | --- | --- | --- | --- | --- |
| C[C@@H](c1ncncc1F)[C@](O)(Cn1cncn1)c1ccc(F)cc1F [Voriconazole] | 1000 to 5000 ng/mL | < 1000 ng/mL | below the therapeutic range | within the therapeutic range |  |
| COc1ccc2[nH]c([S+]([O-])Cc3ncc(C)c(OC)c3C)nc2c1 (centres unmarked) [omeprazole] |  |  |  |  | 10.5 |
